Measured values as given in patent publication US9457062B2, “Chaperonin 10-induced immunomodulation” (CBIO LIMITED, priority 2005, dated 2016).

Key:
[1] = system: Hsp70; experiment: FRET with Hsp70 on MonoMac 6 cells; type: binding, human
Experimental: (§1) Cell labeling for FRET. MonoMac 6 cells (a human monocytic cell line) were labeled with 100 μl of a mixture of donor conjugated antibody (Cy3) and acceptor conjugated antibody (Cy5). For labelling of Cpn10, an anti-Cpn10 rabbit polyclonal antibody was used. […] The cells were fixed in order to prevent potential re-organisation of the proteins during the course of the experiment. Confocal imaging. Cells were imaged on a Carl Zeiss, Inc. LSM510 confocal microscope (with an Axiovert 200 fluorescent microscope) using a 1.4 NA 63× Zeiss objective. The images were analysed using LSM 2.5 image analysis software (Carl Zeiss, Inc.). Cy3 and Cy5 were detected using the appropriate filter sets. Using typical exposure times for image acquisition (less than 5 s), no fluorescence was observed from a Cy3-labelled specimen using the Cy5 filters, nor was Cy5 fluorescence detected using the Cy3 filter sets. FRET measurements. […] In the present study, FRET was measured using a method as previously described (Kenworthy and […] (1998) Journal of Cell Biology 142: 69-84; Kenworthy and […] (1998) in Gelb, M. H. (Ed.) Methods in molecular Biology. Humana Press Inc, Totowa, N.J. pp 37-49). Briefly, samples were labeled with donor and acceptor conjugated antibodies, and energy transfer was detected as an increase in donor fluorescence (dequenching) after complete photobleaching of the acceptor molecule. […]

[2] = target: T1, CD14 (Homo sapiens, UniProt P08571); experiment: FRET with CD14 on MonoMac 6 cells; type: binding
T1 construct: MonoMac 6 cells (a human monocytic cell line); endogenous in cells; host or cells: MonoMac 6
T1 sequence (P08571 20-345): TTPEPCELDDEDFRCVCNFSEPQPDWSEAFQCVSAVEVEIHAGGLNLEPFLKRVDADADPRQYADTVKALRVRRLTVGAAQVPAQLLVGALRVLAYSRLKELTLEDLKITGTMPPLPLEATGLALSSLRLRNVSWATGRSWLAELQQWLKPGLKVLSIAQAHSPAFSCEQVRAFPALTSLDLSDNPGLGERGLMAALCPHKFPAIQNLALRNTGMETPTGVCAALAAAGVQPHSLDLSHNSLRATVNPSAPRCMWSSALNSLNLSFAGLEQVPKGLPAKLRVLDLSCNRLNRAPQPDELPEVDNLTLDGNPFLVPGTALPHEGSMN
Experimental: as §1

[3] = system: GM1; experiment: FRET with GM1 (lipid rafts) on MonoMac 6 cells; type: binding, human; conditions: donor GM1
Experimental: Cell labeling for FRET. MonoMac 6 cells (a human monocytic cell line) were labeled with 100 μl of a mixture of donor conjugated antibody (Cy3) and acceptor conjugated antibody (Cy5). For labelling of Cpn10, an anti-Cpn10 rabbit polyclonal antibody was used. The cells were rinsed twice in PBS/0.02% BSA, prior to fixation with 4% formaldehyde for 15 min. The cells were fixed in order to prevent potential re-organisation of the proteins during the course of the experiment. Confocal imaging. Cells were imaged on a Carl Zeiss, Inc. LSM510 confocal microscope (with an Axiovert 200 fluorescent microscope) using a 1.4 NA 63× Zeiss objective. The images were analysed using LSM 2.5 image analysis software (Carl Zeiss, Inc.). Cy3 and Cy5 were detected using the appropriate filter sets. Using typical exposure times for image acquisition (less than 5 s), no fluorescence was observed from a Cy3-labelled specimen using the Cy5 filters, nor was Cy5 fluorescence detected using the Cy3 filter sets. FRET measurements. FRET is a non-invasive imaging technique used to determine molecular proximity. […]
In the present study, FRET was measured using a method as previously described (Kenworthy and Edidin (1998) Journal of Cell Biology 142: 69-84; Kenworthy and Edidin (1998) in Gelb, M. H. (Ed.) Methods in molecular Biology. Humana Press Inc, Totowa, N.J. pp 37-49). […]

[4] = system: Hsp90; experiment: FRET with Hsp90 on MonoMac 6 cells; type: binding, human
Experimental: as §1

[5] = target: T2, TLR3 (Mus musculus, UniProt Q99MB1); experiment: IFNβ ELISA of supernatants of RAW264.7 cells stimulated with polyI:C; type: cell-based
T2 construct: Experiments were conducted in the murine macrophage cell line RAW264.7; endogenous in cells; host or cells: RAW264.7 / RAW264-pNifty2-LUC
Experimental: Briefly, RAW264.7 cells were seeded at 2×10^5 cells/well in 24 well plates and cultured overnight (37° C., 5% CO2). Recombinant human Cpn10 (at concentrations between 10 μg/ml and 200 μg/ml) or buffer was added to cells in duplicate for 2 hours followed by the addition of polyI:C (tlrl-pic, InvivoGen, San Diego, Calif.) to a final concentration of 100 μg/ml. After 24 hours, supernatants were collected and analysed for IFNβ levels using a specific ELISA according to manufacturer's instructions (Cat No. 42400-1, R&D Systems Inc, Minneapolis, Minn.).

[6] = target: T3, TLR4 (Homo sapiens, UniProt O00206); experiment: FRET with TLR4 on MonoMac 6 cells; type: binding
T3 construct: endogenous in cells; host or cells: freshly isolated human monocytes; human monocyte-derived DC
Experimental: as §1

[7] = target: T4, CXCR4 (Homo sapiens, UniProt P61073); experiment: FRET with CXCR4 on MonoMac 6 cells; type: binding
T4 construct: MonoMac 6 cells (a human monocytic cell line); endogenous in cells; host or cells: MonoMac 6
Experimental: as §1

[8] = system: Cpn10 promoter; experiment: Cpn10 promoter luciferase reporter (pCAT/LUC-CPN) in RAW264.7 cells; type: cell-based, mouse; conditions: for up-regulation of the Cpn10 promoter: optimal agonist concentrations (FIG. 18H): IFNγ 1 ng/ml, IL-1β 1 ng/ml, TNF-α 100 ng/ml
Text: Reagents. Recombinant human Cpn10 was produced to GMP specifications by BresaGen Limited (Adelaide, Aus) essentially as described previously (Johnson, B. 2005. J. Biol Chem 280:4037-4047). […] For FACS analysis, a cysteine residue was engineered onto the C-terminus of Cpn10 and labeled with AlexFluor647 (Invitrogen) according to manufacturer's instructions. […] TLR ligands and cytokines included: E. coli LPS (strain 055:B5, Sigma), E. coli ultra-pure LPS (0111:B4 Sigma), S. aureus LTA, B. subtilis LTA, S. aureus PGN, B. subtilis PGN, zymosan cell wall from S. cerevisae, poly(I:C), imiquimod R837, CpG ODN 1826 and ODN2216, GpC ODN1826 control, (all from Invivogen, San Diego, Calif.), recombinant mouse IFNγ, (Chemicon), IL-1β (PeproTech), and recombinant human TNF-α (Invivogen). Antibodies. Rabbit polyclonal antibodies were raised against Cpn10 and affinity purified at CBio. Cytometric Bead Array (CBA) Flex Sets recognizing phosphorylated signal proteins (both human and mouse) including ERK1/2 (T202/Y204), JNK1/2 (T183/Y185), p38/MAPKinase (T180/Y182), CD14, and FcBlock (CD16/CD32) were from BD. Transfection, Cell Stimulation and Promoter analysis. The pCAT/LUC-CPN promoter construct was provided by M. Ryan and N. Hoogenraad (La Trobe University, Melbourne). RAW264.7 cells were transiently transfected using GeneJuice (Novagen). After 24 h cells were harvested and cell viability assessed by trypan blue dye exclusion. Cells were seeded into 24-well plates and heat shocked (43° C. for 15 min (mild), 30 min (moderate), or 60 min (severe)) followed by recovery at 37° C. or stimulated after 18 h. Cells were washed, harvested in Cell Culture Lysis Reagent (CCLR, Promega) and firefly luciferase signal measured using the Luciferase Assay System (Promega) and the Wallac Victor 2 Multilabel Counter (Perkin-Elmer). Real-time PCR. RAW264.7 cells were seeded at 2.5×10^5/ml in sterile 24 well plates and adhered for 16-20 hrs prior to stimulation. […] Cells were assessed for viability, pooled per condition (n=4), pelleted by centrifugation and resuspended in CCLR.

[9] = system: Cpn10 mRNA; experiment: Cpn10 mRNA real-time PCR in RAW264.7 cells; type: cell-based, mouse; conditions: maximal induction at 18 h, near baseline by 24 h
[10] = system: RAW264.7 cells; experiment: ELISA of endogenous Cpn10 in RAW264.7 culture supernatants and cell lysates; type: cell-based, mouse
Text: Reagents. Recombinant human Cpn10 was produced to GMP specifications by BresaGen Limited (Adelaide, Aus) essentially as described previously (Johnson, B. 2005. J. Biol Chem 280:4037-4047). […] For FACS analysis, a cysteine residue was engineered onto the C-terminus of Cpn10 and labeled with AlexFluor647 (Invitrogen) according to manufacturer's instructions. […] TLR ligands and cytokines included: E. coli LPS (strain 055:B5, Sigma), E. coli ultra-pure LPS (0111:B4 Sigma), S. aureus LTA, B. subtilis LTA, S. aureus PGN, B. subtilis PGN, zymosan cell wall from S. cerevisae, poly(I:C), imiquimod R837, CpG ODN 1826 and ODN2216, GpC ODN1826 control, (all from Invivogen, San Diego, Calif.), recombinant mouse IFNγ, (Chemicon), IL-1β (PeproTech), and recombinant human TNF-α (Invivogen). Antibodies. Rabbit polyclonal antibodies were raised against Cpn10 and affinity purified at CBio. […] After 24 h cells were harvested and cell viability assessed by trypan blue dye exclusion. […] Cells were washed, harvested in Cell Culture Lysis Reagent (CCLR, Promega) and firefly luciferase signal measured using the Luciferase Assay System (Promega) and the Wallac Victor 2 Multilabel Counter (Perkin-Elmer). […] Cells were assessed for viability, pooled per condition (n=4), pelleted by centrifugation and resuspended in CCLR.

[11] = system: HeLa cells
Experimental: (§2) For the data shown in FIG. 34, PolyI:C (supplied by Invivogen) was dissolved in sterile saline at 5 mg/ml stored frozen at −20° C. Vials were thawed and diluted into medium. For buffer controls, the same volume and sterile saline was added to cell culture wells. […] RAW264.7 cells were grown as adherent cultures in flasks and scraped (i.e. not trypisinised) prior to seeding into 96-well plates. HeLa cells were trypsinised in the standard way prior to seeding. Cells were seeded in duplicate in a 96-well plate (5×10^3 for RAW264.7 cells and 10^4 for HeLa cells in 50 μl medium per well). After 4 h, Cpn10 was added (in 50 μl diluted in medium) and after a further 30 mins polyI:C was added (in 50 μl diluted in medium). The cells were then incubated overnight in the 96-well plates and then RRV was added (MOI=1 for RAW264.7 cells, and MOI=10 for HeLa cells in 50 μl). After 3 days, the cells were fixed, stained with crystal violet, washed, dried and dye extracted with 100% methanol and read at A595 nm as described (Antalis et al, J Exp Med 1998, 187(11):1799). […] Titrations were established to determine the dose required for induction of anti-viral resistance for RAW264.7 cells and HeLa cells.

[12] = system: RAW264.7 cells
Experimental: as §2

T2 sequence (Q99MB1 26-905): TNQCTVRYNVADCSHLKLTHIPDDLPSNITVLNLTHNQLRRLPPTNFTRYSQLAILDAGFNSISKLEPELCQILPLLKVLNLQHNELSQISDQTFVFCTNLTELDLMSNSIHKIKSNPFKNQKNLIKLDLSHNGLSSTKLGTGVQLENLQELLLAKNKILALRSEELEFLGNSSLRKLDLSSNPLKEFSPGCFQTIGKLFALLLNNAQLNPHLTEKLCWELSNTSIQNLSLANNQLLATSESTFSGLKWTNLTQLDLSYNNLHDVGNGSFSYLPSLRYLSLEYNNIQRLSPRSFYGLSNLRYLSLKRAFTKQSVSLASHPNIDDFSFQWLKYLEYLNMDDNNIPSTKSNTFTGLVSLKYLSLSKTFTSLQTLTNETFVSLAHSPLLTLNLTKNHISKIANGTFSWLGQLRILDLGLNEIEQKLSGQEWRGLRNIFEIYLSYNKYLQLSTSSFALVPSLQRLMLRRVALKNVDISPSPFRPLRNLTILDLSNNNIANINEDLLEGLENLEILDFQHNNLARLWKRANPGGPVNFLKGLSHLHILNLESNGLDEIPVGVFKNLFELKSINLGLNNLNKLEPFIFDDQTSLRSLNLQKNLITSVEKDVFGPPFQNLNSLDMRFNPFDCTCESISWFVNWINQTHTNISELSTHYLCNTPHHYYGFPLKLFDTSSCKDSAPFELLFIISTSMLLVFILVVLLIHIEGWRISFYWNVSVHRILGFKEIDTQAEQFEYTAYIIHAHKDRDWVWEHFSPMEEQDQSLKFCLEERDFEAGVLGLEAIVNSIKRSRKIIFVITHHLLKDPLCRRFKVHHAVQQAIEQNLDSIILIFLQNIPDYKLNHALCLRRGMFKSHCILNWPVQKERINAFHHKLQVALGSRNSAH
T4 sequence (P61073 whole entry): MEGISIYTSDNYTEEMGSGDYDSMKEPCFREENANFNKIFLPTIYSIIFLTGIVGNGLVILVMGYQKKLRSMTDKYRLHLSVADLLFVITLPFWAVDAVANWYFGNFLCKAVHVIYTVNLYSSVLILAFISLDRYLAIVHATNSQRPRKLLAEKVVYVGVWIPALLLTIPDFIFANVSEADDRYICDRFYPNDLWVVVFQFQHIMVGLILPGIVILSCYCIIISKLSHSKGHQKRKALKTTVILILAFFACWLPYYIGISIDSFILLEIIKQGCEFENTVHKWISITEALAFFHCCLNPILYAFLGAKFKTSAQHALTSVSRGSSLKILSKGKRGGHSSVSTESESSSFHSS
T3 sequence (O00206 24-839): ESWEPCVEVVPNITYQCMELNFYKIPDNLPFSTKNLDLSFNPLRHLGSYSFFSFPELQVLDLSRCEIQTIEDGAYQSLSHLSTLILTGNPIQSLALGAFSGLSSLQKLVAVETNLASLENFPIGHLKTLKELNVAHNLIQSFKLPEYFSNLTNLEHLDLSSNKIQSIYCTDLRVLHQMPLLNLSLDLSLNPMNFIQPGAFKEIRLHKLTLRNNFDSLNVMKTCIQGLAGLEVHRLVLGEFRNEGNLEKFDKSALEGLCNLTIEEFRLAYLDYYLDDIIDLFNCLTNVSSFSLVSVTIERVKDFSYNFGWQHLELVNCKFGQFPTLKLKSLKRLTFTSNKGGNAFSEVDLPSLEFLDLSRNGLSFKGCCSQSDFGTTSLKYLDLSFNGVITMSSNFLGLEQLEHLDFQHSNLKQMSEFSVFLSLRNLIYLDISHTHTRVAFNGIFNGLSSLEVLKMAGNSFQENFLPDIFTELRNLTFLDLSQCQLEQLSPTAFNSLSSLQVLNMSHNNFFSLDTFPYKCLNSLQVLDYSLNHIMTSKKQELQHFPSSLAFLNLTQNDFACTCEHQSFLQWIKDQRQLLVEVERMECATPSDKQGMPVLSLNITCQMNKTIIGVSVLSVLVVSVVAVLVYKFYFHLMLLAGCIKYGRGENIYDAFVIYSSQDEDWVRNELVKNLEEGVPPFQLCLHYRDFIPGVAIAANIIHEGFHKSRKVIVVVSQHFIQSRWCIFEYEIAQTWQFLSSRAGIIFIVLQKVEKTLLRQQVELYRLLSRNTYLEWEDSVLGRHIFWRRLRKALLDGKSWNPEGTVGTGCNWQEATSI

## GroES: E. coli homologue of Cpn10, routinely used as a negative control
[1]; MM6 cells stimulated with LPS
  E ± ΔE (%) energy transfer efficiency: 7 ± 1.5%
[1]; Unstimulated MM6 cells
  E ± ΔE (%) energy transfer efficiency: 6 ± 1.0%
[2]; MM6 cells stimulated with LPS
  E ± ΔE (%) energy transfer efficiency: 7 ± 0.5%
[2]; Unstimulated MM6 cells
  E ± ΔE (%) energy transfer efficiency: 8 ± 1.0%
[3]; MM6 cells stimulated with LPS
  E ± ΔE (%) energy transfer efficiency: 6 ± 1.0%
[3]; Unstimulated MM6 cells
  E ± ΔE (%) energy transfer efficiency: 7 ± 1.5%
[4]; MM6 cells stimulated with LPS
  E ± ΔE (%) energy transfer efficiency: 8 ± 2.0%
[4]; Unstimulated MM6 cells
  E ± ΔE (%) energy transfer efficiency: 7 ± 1.5%
[5]; polyI:C stimulation, 10-200 μg/ml protein
  effect on polyI:C-induced IFNβ levels in culture supernatants: did not modulate the production of IFN-β
[6]; MM6 cells stimulated with LPS
  E ± ΔE (%) energy transfer efficiency: 8 ± 1.0%
[6]; Unstimulated MM6 cells
  E ± ΔE (%) energy transfer efficiency: 7 ± 1.5%
[7]; MM6 cells stimulated with LPS
  E ± ΔE (%) energy transfer efficiency: 3 ± 1.0%
[7]; Unstimulated MM6 cells
  E ± ΔE (%) energy transfer efficiency: 4 ± 2.0%

## IL-1β: IL-1β (PeproTech), non-TLR agonist
[8]
  up-regulation of the Cpn10 promoter: did not induce substantial up-regulation

## TNF-α
[8]
  up-regulation of the Cpn10 promoter: did not induce substantial up-regulation

## lipoteichoic acid [LTA]
[9]
  induction of Cpn10 mRNA: concentration-dependent induction of Cpn10 mRNA
[8]; 24 hour stimulation, constant at 30 hours
  induction of the Cpn10 promoter: 2.7 fold
[10]; LTA treated vs control cells
  intracellular Cpn10 levels in cell lysates: little change in intracellular Cpn10 levels
[10]; after 30 h, 100 μg/ml LTA
  increase in soluble (extracellular) Cpn10 in culture supernatants over unstimulated control cells: 3 fold

## polyinosinic-polysytidilic acid [polyI:C]
[11]
  toxicity: No such toxicity was observed
[5]; polyI:C at 100 μg/ml, absence of Cpn10
  IFNβ released into culture supernatants: 292 pg/mL
[12]
  concentrations showing clear signs of toxicity: 5000 to 10000 ng/mL
